Converted amounts (≈) assume the structure as drawn. Like-named read-outs stand apart in the source and are kept apart here.
How the values were obtained:
S. aureus ATCC 29213 [1] = assay: MIC by micro-dilution broth method (CLSI); type: cell-based
S. aureus 29213 = assay: MIC shift with 50% human serum; type: cell-based; conditions: S. aureus 29213, 50% human serum vs none
Protocol: Antimicrobial Susceptibility Tests. Susceptibility testing was performed in biological triplicate, using the micro-dilution broth method as outlined by the Clinical and Laboratory Standards Institute. […] Human serum (Ultrafiltrate, unspecified gender, 30K Dalton membrane filtered) was purchased from BioIVT (Hicksville, NY).

[2] = Mouse liver microsome stability assay; type: in vitro ADME; conditions: 3 h at 37° C., LC-MS/MS, ± SEM of 3 biological replicates
Protocol: Mouse Liver Microsome Stability Assay. A mixture of PBS (pH 7.4), NADPH regenerating system solution A (Corning Life Sciences), and NADPH regenerating system solution B (Corning Life Sciences) was incubated at 37° C. in a shaking incubator for 5 min. Next, compound was added in DMSO (final concentration 50 μM, 0.5% DMSO) before ice-cold mouse liver microsomes (Thermo Fisher, male CD-1 mice, pooled) were added (final protein concentration of 1 mg/mL). An aliquot was immediately removed, quenched with an equal volume of 100 μM internal standard and centrifuged at 13,000 rcf for 3 min. The reactions were incubated at 37° C. in a shaking incubator for 3 h. A second aliquot was removed and quenched. Samples were analyzed with the 5500 QTRAP LC/MS/MS system (Sciex, Framingham, MA) in Metabolomics Lab of Roy J. Carver Biotechnology Center, University of Illinois at Urbana-Champaign. Software Analyst 1.6.2 was used for data acquisition and analysis. The 1200 series HPLC system (Agilent Technologies, Santa Clara, CA) includes a degasser, an autosampler, and a binary pump. The LC separation was performed on an Agilent Sb-Aq column (4.6×50 mm, […]) with mobile phase A (0.1% formic acid in water) and mobile phase B (0.1% formic acid in acetonitrile). The flow rate was 0.3 mL/min. The linear gradient was as follows: 0-3 min, 100% A; 10-16 min, 5% A; 16.5-22 min, 100% A. The autosampler was set at 10° C. The injection volume was 1 μL. Mass spectra were acquired under both positive (ion spray voltage was +5500 V) and negative (ion spray voltage was −4500 V) electrospray ionization (ESI). The source temperature was 450° C. The curtain gas, ion source gas 1, and ion source gas 2 were 33, 65, and 60 psi, respectively. Multiple reaction monitoring (MRM) was used for quantitation.

[3] = test system: human foreskin fibroblasts (HFF-1); assay: Cell viability, Alamar Blue assay; type: cell-based; conditions: 72 h incubation, error SEM n = 2, read-out: IC50, Mammalian Toxicity in HFF-1
Protocol: Cell Culture. HFF-1 cells were obtained from ATCC. HFF-1 cells were grown in DMEM with 15% fetal bovine serum (Gemini Benchmark, Cat #100-106), 100 U/mL penicillin, and 100 μg/mL streptomycin. All cells were cultured at 37° C. in a 5% CO2 environment. Media was prepared by the University of Illinois School of Chemical Sciences Cell Media Facility.
Cell Viability. Cells were harvested, seeded in a 96 well-plate and allowed to adhere. Cells were treated with investigational compounds in DMSO (1% final concentration). Cells were incubated for 72 h before viability was assessed by the Alamar Blue Assay. Raptinal ([…]) was used as a dead control.

S. aureus ATCC 29213 [4] = assay: Resistance frequency, large inoculum method; type: cell-based
Protocol: Selection of Resistant Mutants. Resistant mutants were selected via the large inoculum method. Briefly, S. aureus ATCC 29213 (1×10^9 CFU) were plated on 100 mm plates of LB agar containing 4, 2, 1, 0.5, and 0.25 μg/mL.

Mouse MTD / tolerability = conditions: mouse, in vivo, ip, 50 mg/kg
Protocol: The protocol was approved by the IACUC at the University of Illinois at Urbana-Champaign (Protocol Number: 16144 and 19181). In these studies, 10- to 12-week-old female C57BL/6 mice purchased from Charles River were used. The maximum tolerated dose (MTD) of single compound was determined first. […] All the mice were monitored for signs of toxicity for 2 weeks. For multiple doses, the compound was given by daily IP for 4 consecutive days, and mice were monitored for signs of toxicity for 1 month. MTD was the highest dosage with acceptable toxicity (e.g., <20% weight loss).

Row | Compound | Antibacterial activity relative to FA (S. aureus ATCC 29213 [1]; S. aureus ATCC 29213 MIC) | MIC (S. aureus ATCC 29213 [1]; Staphylococcus aureus, ATCC29213, WT S. aureus ATCC 29213, n = 3, read-out: MIC Without Human Serum) [µg/mL] | Fold Change Increase in MIC with 50% Human Serum (S. aureus 29213) [X] | Metabolic Stability in Mouse Liver Microsomes (percent remaining) [2] [%] | IC50 [3] [µM] | IC50 ([3]; Homo sapiens, HFF-1, 72 h) [µM] | Resistance frequency relative to FA (S. aureus ATCC 29213 [4]; head-to-head with FA, 2×-32× the MIC) | Resistance frequency relative to FA (S. aureus ATCC 29213 [4]; only at 32× the MIC) | Tolerability (Mouse MTD / tolerability)
1 | CC(=O)O[C@H]1C[C@@]2(C)[C@@H](C[C@@H](O)[C@H]3[C@@]4(C)CC[C@@H](O)[C@@H](C)[C@@H]4CC[C@@]32C)/C1=C(\CCC=C1CCCCC1)C(=O)O [Compound 26, (Z)-2-((3R,4S,5S,8S,9S,10S,11R,13R,14S,16S)-16-acetoxy-3,11-dihydroxy-4,8,10,14-tetramethylhexadecahydro-17H-cyclopenta[a]phenanthren-17-ylidene)-5-cyclohexylidenepentanoic acid] | equipotent activity to FA | 0.125 (≈ 0.225 µM) | 16 | 61 ± 1 | 53 ± 4 | > 50 | improvement in resistance frequency relative to FA | improvement | 
2 | CC(=O)O[C@H]1C[C@@]2(C)[C@@H](C[C@@H](O)[C@H]3[C@@]4(C)CC[C@@H](O)[C@@H](C)[C@@H]4CC[C@@]32C)/C1=C(\CCC=C(C)C)C(=O)O [Sodium fusidate, reference compound] |  |  |  |  |  |  |  |  | well tolerated

— patent US20240109934A1, “ANTIBIOTICS WITH IMPROVED DRUG RESISTANCE PROFILE” (priority 2021, published 2024)
